Measurements reported in ChEMBL document CHEMBL3576805, “Discovery of a Dual PRMT5-PRMT7 Inhibitor” (ACS Med Chem Lett, 2015).
The source made the active and inactive calls. No cut-off for these calls is given here.

Key:
PRMT5/MEP50 complex [1] = target: T1, PRMT5/MEP50 complex (Homo sapiens, UniProt O14744); test: (§1) Inhibition of human full length PRMT5-MEP50 complex expressed in Sf9 cells
[2] = target: T2, Protein arginine N-methyltransferase 7 (Homo sapiens, UniProt Q9NVM4); test: Inhibition of human full length PRMT7 expressed in Sf9 cells
T2 sequence (Q9NVM4 whole entry): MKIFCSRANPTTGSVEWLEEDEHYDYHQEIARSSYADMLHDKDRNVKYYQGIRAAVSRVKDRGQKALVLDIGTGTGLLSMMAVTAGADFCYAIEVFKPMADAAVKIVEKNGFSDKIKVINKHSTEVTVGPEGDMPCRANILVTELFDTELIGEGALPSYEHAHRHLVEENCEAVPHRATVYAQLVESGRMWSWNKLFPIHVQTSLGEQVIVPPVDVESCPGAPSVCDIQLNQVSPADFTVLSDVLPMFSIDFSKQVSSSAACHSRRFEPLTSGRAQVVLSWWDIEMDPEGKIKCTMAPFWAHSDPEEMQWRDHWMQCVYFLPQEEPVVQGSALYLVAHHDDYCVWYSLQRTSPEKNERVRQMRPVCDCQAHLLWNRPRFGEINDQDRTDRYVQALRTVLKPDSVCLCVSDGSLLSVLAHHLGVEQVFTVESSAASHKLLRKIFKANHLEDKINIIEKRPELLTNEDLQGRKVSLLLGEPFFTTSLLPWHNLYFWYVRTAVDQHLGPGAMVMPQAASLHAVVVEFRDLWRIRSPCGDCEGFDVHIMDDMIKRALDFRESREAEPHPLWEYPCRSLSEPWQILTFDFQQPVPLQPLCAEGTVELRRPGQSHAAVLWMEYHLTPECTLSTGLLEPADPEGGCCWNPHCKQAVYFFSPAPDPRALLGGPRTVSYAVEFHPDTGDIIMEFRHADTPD

[3] = target: T3, PRMT5/MEP50 complex (Homo sapiens) (UniProt O14744+Q9BQA1); test: Inhibition of human full length PRMT5-MEP50 complex expressed in Sf9 cells assessed as inhibition of methylation of peptide substrate at 750 uM
[4] = target: DNA (cytosine-5)-methyltransferase 3A (Homo sapiens, UniProt Q9Y6K1); test: Inhibition of human full length DNMT3A expressed in Sf9 cells
[5] = target: DNA (cytosine-5)-methyltransferase 3B (Homo sapiens, UniProt Q9UBC3); test: Inhibition of human full length DNMT3B expressed in Sf9 cells
[6] = target: Protein arginine N-methyltransferase 3 (Homo sapiens) (UniProt O60678); test: Inhibition of PRMT3 (unknown origin)
[7] = target: Protein arginine N-methyltransferase 5 (Homo sapiens, UniProt O14744); test: Inhibition of human full length PRMT5 expressed in Sf9 cells
MDA-MB-231 [8] = test: Cytotoxicity against human MDA-MB-231 cells assessed as cell viability by Alamar blue assay; assay type: cell-based
PRMT5/MEP50 complex [9] = target: T1, PRMT5/MEP50 complex; test: Inhibition of human full length PRMT5-MEP50 complex expressed in Sf9 cells using full length histone H4 substrate
MDA-MB-231 [10] = test: Inhibition of H4R3 methylation in human MDA-MB-231 cells at 50 uM by immunoblotting analysis; assay type: functional, cell-based
[11] = target: Protein arginine N-methyltransferase 1 (Homo sapiens) (UniProt Q99873); test: Inhibition of PRMT1 (unknown origin)
[12] = target: Protein arginine N-methyltransferase 8 (Homo sapiens) (UniProt Q9NR22); test: Inhibition of PRMT8 (unknown origin)
[13] = target: T3, PRMT5/MEP50 complex (Homo sapiens); test: as §1
PRMT5/MEP50 complex [14] = target: T1, PRMT5/MEP50 complex; test: Binding affinity to human full length PRMT5-MEP50 complex by Surface plasmon resonance method; assay type: protein-complex assay
[15] = target: T2, Protein arginine N-methyltransferase 7; test: Binding affinity to human full length PRMT7 by Surface plasmon resonance method
[16] = target: Protein arginine N-methyltransferase 6 (Homo sapiens) (UniProt Q96LA8); test: Inhibition of PRMT6 (unknown origin)
[17] = target: T3, PRMT5/MEP50 complex (Homo sapiens); test: Noncompetitive inhibition of human full length PRMT5-MEP50 complex expressed in Sf9 cells in presence of increasing concentration of histone peptide substrate
[18] = target: T3, PRMT5/MEP50 complex (Homo sapiens); test: Inhibition of human full length PRMT5-MEP50 complex expressed in Sf9 cells using SmD3 peptide AGRGRGKAAILKAQVAARGRGRGMGRGN as a substrate

T1 sequence (O14744 whole entry): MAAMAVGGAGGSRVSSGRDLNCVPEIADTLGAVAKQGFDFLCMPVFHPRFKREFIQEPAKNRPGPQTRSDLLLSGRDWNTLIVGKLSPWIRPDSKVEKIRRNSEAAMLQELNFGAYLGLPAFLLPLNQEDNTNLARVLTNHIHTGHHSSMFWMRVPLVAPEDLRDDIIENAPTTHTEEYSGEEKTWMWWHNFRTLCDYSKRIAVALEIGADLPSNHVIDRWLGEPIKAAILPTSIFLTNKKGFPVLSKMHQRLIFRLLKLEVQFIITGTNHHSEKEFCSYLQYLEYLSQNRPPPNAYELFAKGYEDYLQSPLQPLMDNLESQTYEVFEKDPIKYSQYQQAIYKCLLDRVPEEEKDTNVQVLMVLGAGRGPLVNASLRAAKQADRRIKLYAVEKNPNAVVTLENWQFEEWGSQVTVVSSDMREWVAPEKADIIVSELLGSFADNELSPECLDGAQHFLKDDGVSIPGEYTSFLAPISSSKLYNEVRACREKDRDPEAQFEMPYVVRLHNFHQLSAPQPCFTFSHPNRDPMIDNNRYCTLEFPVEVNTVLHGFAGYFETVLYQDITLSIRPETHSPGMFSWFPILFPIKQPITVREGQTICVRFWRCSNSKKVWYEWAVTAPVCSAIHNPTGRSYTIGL
T1 sequence (Q9BQA1 whole entry, further chain): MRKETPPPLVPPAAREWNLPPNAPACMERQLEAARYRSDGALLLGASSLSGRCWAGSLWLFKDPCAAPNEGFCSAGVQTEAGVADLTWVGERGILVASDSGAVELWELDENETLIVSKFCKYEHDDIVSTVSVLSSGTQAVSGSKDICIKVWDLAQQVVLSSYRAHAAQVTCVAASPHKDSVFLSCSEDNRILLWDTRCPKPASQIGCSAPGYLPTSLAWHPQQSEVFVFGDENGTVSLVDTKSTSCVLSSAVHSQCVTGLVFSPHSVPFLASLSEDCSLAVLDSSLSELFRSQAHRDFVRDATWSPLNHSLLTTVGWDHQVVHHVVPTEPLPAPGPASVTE
DNA (cytosine-5)-methyltransferase 3A, sequence (Q9Y6K1 whole entry, looked up): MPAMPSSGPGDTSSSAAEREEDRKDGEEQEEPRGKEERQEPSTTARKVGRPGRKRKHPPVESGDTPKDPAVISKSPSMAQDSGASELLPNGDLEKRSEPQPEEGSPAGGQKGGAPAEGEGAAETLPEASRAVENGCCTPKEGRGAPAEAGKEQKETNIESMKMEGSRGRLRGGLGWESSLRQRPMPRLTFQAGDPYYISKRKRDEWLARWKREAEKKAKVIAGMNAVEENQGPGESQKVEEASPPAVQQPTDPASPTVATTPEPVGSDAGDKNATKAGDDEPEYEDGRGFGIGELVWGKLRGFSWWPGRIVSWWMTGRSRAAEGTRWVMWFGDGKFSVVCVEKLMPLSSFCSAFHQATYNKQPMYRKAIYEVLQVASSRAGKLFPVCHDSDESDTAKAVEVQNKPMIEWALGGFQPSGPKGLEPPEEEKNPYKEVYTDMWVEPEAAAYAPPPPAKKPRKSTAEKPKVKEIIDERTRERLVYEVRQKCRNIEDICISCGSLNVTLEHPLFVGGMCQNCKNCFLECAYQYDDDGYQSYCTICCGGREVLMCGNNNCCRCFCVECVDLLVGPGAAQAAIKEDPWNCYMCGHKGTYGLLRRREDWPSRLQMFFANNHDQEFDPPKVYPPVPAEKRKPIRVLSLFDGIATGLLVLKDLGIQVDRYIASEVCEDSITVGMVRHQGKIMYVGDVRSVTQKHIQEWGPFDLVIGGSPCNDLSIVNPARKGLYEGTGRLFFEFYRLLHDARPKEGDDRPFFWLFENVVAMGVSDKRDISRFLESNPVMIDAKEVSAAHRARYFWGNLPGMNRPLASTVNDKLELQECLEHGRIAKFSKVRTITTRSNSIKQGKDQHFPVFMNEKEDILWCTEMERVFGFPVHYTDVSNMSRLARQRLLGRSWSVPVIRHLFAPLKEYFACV
Protein arginine N-methyltransferase 1 (Homo sapiens), sequence (Q99873 whole entry, looked up): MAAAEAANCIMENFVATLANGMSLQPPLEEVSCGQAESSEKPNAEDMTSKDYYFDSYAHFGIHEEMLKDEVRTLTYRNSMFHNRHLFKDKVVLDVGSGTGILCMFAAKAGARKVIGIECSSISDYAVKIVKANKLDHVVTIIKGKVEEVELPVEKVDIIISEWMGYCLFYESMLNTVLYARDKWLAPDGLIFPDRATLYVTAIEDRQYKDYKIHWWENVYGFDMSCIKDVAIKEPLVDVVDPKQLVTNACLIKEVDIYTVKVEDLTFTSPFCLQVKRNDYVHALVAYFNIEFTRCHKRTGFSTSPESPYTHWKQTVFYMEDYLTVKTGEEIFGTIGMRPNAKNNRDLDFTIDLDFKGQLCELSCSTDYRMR
Protein arginine N-methyltransferase 5, sequence (O14744 whole entry): as the sequence (O14744 whole entry) above
Protein arginine N-methyltransferase 6 (Homo sapiens), sequence (Q96LA8 whole entry, looked up): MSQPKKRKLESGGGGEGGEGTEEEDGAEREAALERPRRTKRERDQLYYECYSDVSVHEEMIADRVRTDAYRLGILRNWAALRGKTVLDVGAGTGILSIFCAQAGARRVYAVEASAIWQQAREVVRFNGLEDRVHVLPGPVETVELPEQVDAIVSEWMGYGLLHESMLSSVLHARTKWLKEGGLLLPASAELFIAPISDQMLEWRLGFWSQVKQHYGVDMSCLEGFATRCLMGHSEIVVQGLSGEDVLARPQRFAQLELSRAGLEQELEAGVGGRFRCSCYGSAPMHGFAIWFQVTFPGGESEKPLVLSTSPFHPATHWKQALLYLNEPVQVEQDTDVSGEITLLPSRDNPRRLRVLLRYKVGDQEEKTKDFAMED
Protein arginine N-methyltransferase 8 (Homo sapiens), sequence (Q9NR22 2-394 limits assumed): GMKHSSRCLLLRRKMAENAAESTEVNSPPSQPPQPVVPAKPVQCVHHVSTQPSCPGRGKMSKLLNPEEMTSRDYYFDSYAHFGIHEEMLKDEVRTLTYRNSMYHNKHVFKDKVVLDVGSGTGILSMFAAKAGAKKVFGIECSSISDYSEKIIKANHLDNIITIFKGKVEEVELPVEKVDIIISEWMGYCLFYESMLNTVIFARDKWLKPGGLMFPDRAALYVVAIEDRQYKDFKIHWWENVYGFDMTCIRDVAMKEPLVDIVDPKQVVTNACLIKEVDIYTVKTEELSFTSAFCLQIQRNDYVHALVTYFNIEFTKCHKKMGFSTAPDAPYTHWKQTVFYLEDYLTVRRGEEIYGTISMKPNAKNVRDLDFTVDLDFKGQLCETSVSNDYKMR
Protein arginine N-methyltransferase 3 (Homo sapiens), sequence (O60678 2-531 limits assumed): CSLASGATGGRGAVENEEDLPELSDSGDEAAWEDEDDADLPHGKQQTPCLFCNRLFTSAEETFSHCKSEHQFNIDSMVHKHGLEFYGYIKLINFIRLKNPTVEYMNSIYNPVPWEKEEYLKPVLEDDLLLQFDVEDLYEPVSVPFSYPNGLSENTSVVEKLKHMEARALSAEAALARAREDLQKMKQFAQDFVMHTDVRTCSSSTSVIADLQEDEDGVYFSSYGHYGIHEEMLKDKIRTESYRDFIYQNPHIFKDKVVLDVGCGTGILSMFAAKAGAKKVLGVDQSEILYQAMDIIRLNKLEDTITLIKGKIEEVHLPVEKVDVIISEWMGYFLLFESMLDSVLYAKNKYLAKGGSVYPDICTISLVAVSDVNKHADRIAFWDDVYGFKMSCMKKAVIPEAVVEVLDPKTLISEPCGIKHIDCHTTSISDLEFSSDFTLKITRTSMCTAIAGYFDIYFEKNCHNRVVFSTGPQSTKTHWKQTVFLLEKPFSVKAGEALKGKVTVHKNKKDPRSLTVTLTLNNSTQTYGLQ

Work on `CC(C)N(CCCNC(=O)Nc1ccc(C(C)(C)C)cc1)C[C@H]1O[C@@H](n2ccc3c(N)ncnc32)[C@H](O)[C@@H]1O` yielded an IC50 (PRMT5/MEP50 complex [1]) of over 20 µM, an IC50 [2] of 7.5 µM and an inhibition [3] of 80%.
`Nc1ncnc2c1ncn2[C@@H]1O[C@H](CSCC[C@H](N)C(=O)O)[C@@H](O)[C@H]1O` [S-ADENOSYLHOMOCYSTEINE] was tested, and the IC50 [4] was over 50 µM and the IC50 [5] was over 50 µM.
For `CCNC(=O)NCCSC[C@H]1O[C@@H](n2cnc3c(N)ncnc32)[C@H](O)[C@@H]1O`, the inhibition [6] was “inactive”, the IC50 [7] was over 50 µM and the Activity (MDA-MB-231 [8]) was “Non-toxic”. For the same molecule, the IC50 (PRMT5/MEP50 complex [9]) was 37 µM, the inhibition (MDA-MB-231 [10]) was “inactive” and the inhibition [11] was “inactive”. For the same molecule, the inhibition [12] was “inactive”, the IC50 [4] was over 50 µM and the inhibition [13] was “Dose-dependent effect”. The IC50 (PRMT5/MEP50 complex [1]) was 5.9 µM, the Kd (PRMT5/MEP50 complex [14]) was 25 µM and the IC50 [5] was over 50 µM. The Kd [15] was 37 µM, the inhibition [16] was “inactive” and the IC50 [2] was over 50 µM. For the same molecule, the inhibition [17] was “Active” and the inhibition [18] was “Active”.
